From paper PMC9943626, “CS27109, A Selective Thyroid Hormone Receptor-β Agonist Alleviates Metabolic-Associated Fatty Liver Disease in Murine Models” (International Journal of Endocrinology, 2023)

Tests used:
PK in the mouse = format: in vivo, C57/B6 mouse
Method: Blood was collected for each mouse 0.5, 1, 2, 3, 4, 6, 8, 24, and 30 hours (H) after compound administration. Then, the serum was isolated and an extractant (containing 200 ng/ml methanol) was added to the serum. Samples were assessed by liquid chromatography-tandem mass spectrometry (LC-MS/MS) according to the standard procedure.

WD + CCL4 model = tested on: WD + CCL4 model; parameters: method as in earlier work; conditions: CCL4 induction started at week 8 (8 weeks in total), drug began 4-week after CCL4 induction; CS27109 alone; ref our another study (manuscript is submitting to another journal); cited from earlier work
THR-α = target: T1, THR-α (Homo sapiens, UniProt P10827); assay: Luciferase reporter gene assay, THR-α; format: cell-based; conditions: CV-1 cells transfected with THR-α, DR4 luciferase reporter, 22 hours
T1 construct: expressed in transfected cells; host or cells: CV-1 cells
T1 sequence (P10827 1-410 isoform P10827-2): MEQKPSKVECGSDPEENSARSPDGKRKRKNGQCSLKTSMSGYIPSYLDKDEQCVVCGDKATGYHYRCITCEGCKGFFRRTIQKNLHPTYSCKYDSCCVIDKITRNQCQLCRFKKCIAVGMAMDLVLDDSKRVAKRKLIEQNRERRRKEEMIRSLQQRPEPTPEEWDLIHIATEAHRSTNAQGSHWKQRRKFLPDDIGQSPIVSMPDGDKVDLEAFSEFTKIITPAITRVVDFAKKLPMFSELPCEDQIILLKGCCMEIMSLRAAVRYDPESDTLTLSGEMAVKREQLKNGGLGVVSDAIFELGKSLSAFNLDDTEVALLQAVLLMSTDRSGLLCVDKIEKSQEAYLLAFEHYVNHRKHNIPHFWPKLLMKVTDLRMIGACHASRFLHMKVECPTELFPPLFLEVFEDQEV
Method: (§1) We applied a luciferase reporter gene assay to assess the capacity of drugs to bind and activate THRα or THRβ. First, we seeded 5 × 10^3 CV-1 cells for each well into 96-well plates and incubated for 24 hours at 37°C and 5% CO2. We then transiently transfected mixed THR-α or THR-β expression plasmids (with DR4) into liposomes with a firefly luciferase reporter (2 : 2 : 1, THRα : DR4 : GFP or 3 : 3 : 1, THRβ : DR4 : GFP) and then mixed with the X-tremeGENE HP DNA Transfection Reagent (Roche, Basel, BS, Switzerland). […] We then removed the medium and added 60 μl of 1x Cell Culture Lysis and 5x reagent (Promega, E153A) to each well. […] Finally, we added 30 μl of Luciferase Assay Buffer (Promega, E151A) to each well to detect Luci values. 50% activation (AC50) for each compound was calculated based on these values.

THR-β = target: T2, THR-β (Homo sapiens, UniProt P10828); assay: Luciferase reporter gene assay, THR-β; format: cell-based
T2 construct: expressed in transfected cells; host or cells: CV-1 cells
T2 sequence (P10828 1-461): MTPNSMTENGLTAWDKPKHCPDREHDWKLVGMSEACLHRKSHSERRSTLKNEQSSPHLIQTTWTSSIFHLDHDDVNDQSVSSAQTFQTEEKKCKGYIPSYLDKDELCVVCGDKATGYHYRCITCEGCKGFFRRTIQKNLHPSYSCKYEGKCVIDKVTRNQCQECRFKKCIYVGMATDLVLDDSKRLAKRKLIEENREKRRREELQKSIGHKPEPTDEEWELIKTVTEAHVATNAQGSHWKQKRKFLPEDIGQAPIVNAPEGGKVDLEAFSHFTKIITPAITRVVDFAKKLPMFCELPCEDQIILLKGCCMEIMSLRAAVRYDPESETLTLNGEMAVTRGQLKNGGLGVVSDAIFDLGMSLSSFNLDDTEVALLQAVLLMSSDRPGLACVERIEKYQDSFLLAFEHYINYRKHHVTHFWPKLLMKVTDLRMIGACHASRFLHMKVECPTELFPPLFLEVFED
Method: as §1

PK in the rat = format: in vivo, SD rat; conditions: 10 mg/kg oral gavage once

| SMILES | PK properties in mouse (comparison of CS27109 and MGL3196) (PK in the mouse; 10 mg/kg oral gavage once) | AUC in mouse relative to AUC in rat (PK in the mouse; 10 mg/kg oral, mouse higher than rat) [fold] | liver fibrosis (WD + CCL4 model) | AC50 (THR-α) [µM] | AC50 (THR-β; CV-1 cells transfected with THR-β, DR4 luciferase reporter, 22 hours) [µM] | Selectivity (α/β) (THR-β; THR-α/THR-β AC50 ratio) | PK properties in rat (compared with CS27109) (PK in the rat) |
| --- | --- | --- | --- | --- | --- | --- | --- |
| N#Cc1nn(-c2cc(Br)c(Oc3n[nH]c(=O)c4ccccc34)c(Br)c2)c(=O)[nH]c1=O [CS27109] | comparative PK properties | 1.5 | sufficient to reverse liver fibrosis | 25.1 | 1.98 | 12.67 |  |
| CC(C)c1cc(Oc2c(Cl)cc(-n3nc(C#N)c(=O)[nH]c3=O)cc2Cl)n[nH]c1=O [MGL3196, 2-[3,5-dichloro-4-(5-isopropyl-6-oxo-1,6-dihydropyridazin-3-yloxy)phenyl]-3,5-dio xo-2,3,4,5-tetrahydro[1,2,4]triazine-6-carbonitrile, reference compound] |  |  |  |  |  |  | slightly higher PK properties |
